Experimental data reported in the NIST ThermoML archive (doi:10.1016/j.jct.2009.11.003).
Where “and” joins values, the source holds several entries; their conditions need not be identical. Equal entries are not always repeated.

Columns and labels:
[1] = Crystal, Calculated from knudsen effusion weight loss
[2] = molar enthalpy of vaporization or sublimation; settings: Crystal, Static calorimetry

Nc1c(Cl)cc([N+](=O)[O-])cc1[N+](=O)[O-] [2-chloro-4,6-dinitrobenzenamine]
Settings	molar enthalpy [kJ/mol]	vapor or sublimation pressure
[1], 358.1 K	–	0.000105 kPa and 0.000103 kPa and 0.00011 kPa
[1], 360.15 K	–	0.00013 kPa and 0.000133 kPa and 0.000128 kPa
[1], 362.16 K	–	0.000164 kPa and 0.000161 kPa and 0.000173 kPa
[1], 364.12 K	–	0.000202 kPa and 0.000198 kPa and 0.000197 kPa
[1], 366.17 K	–	0.000246 kPa and 0.000248 kPa and 0.00024 kPa
[1], 368.17 K	–	0.000302 kPa and 0.000297 kPa and 0.000296 kPa
[1], 370.11 K	–	0.000361 kPa and 0.000368 kPa
[1], 372.08 K	–	0.000455 kPa and 0.00044 kPa and 0.000426 kPa
[1], 374.14 K	–	0.00055 kPa and 0.000536 kPa
[1], 376.25 K	–	0.000684 kPa and 0.000662 kPa and 0.000663 kPa
[1], 378.14 K	–	0.000816 kPa and 0.000824 kPa and 0.000797 kPa
[1], 380.16 K	–	0.000996 kPa and 0.000971 kPa and 0.000963 kPa
[2], 298.15 K	115	–
[2], 369.13 K	114	–

Nc1c([N+](=O)[O-])cc(Cl)cc1[N+](=O)[O-] [4-chloro-2,6-dinitroaniline]
Settings	molar enthalpy [kJ/mol]	vapor or sublimation pressure
[1], 335.12 K	–	7.67e-05 kPa and 7.72e-05 kPa and 7.84e-05 kPa
[1], 338.19 K	–	0.00011 kPa and 0.000108 kPa and 0.000106 kPa
[1], 341.17 K	–	0.00015 kPa and 0.000145 kPa and 0.000146 kPa
[1], 344.17 K	–	0.000202 kPa and 0.000201 kPa and 0.000207 kPa
[1], 347.18 K	–	0.000287 kPa and 0.000284 kPa and 0.000277 kPa
[1], 350.12 K	–	0.000388 kPa and 0.000386 kPa
[1], 353.12 K	–	0.00052 kPa and 0.000532 kPa and 0.000527 kPa
[1], 356.17 K	–	0.000715 kPa and 0.000702 kPa and 0.00071 kPa
[1], 359.16 K	–	0.000964 kPa and 0.000935 kPa and 0.000922 kPa
[2], 298.15 K	105	–
[2], 347.1 K	104.7	–
